This is an account of results in ChEMBL document CHEMBL5528041, “Ferroptosis-Based Therapeutic Strategies toward Precision Medicine for Cancer” (J Med Chem, 2024).

The IC50 is the concentration needed to halve the response being measured.

The test system of assay [1] is Huh-7. The experiment in a line: Cytotoxicity against human Huh-7 cells assessed as reduction in cell viability incubated for 72 hrs by MTT assay. The assay is classed as functional, cell-based. The settings on record: Huh-7, 72 h. On the technique in general: Tetrazolium assays rely on reduction of a dye to a coloured formazan, in cell work by metabolically active cells.

The nature of assay [2]: Antiproliferative activity against human HCCM-5 cells assessed as reduction in cell viability measured after 72 hrs by MTT assay. The assay is classed as functional, cell-based. The settings on record: HCCM-5, 72 h.
For assay [3], the system named is PANC-1. The experiment in a line: Antiproliferative activity against human PANC-1 cells assessed as reduction in cell viability incubated for 48 hrs by resazurin dye based cell titer-blue viability assay. Format: functional. As to conditions: PANC-1, 48 h.
The subject of assay [4] is ASPC1. The experiment in a line: Cytotoxicity against human ASPC1 cells assessed as inhibition of cell growth by SRB assay. The assay is classed as functional, cell-based. In general terms: The SRB assay estimates cell density from bound dye.
Assay [5] relates to Panc1005. The experiment in a line: Antiproliferative activity against human Panc1005 cells assessed as reduction in cell growth incubated for 72 hrs by Cell titer-Glo luminescent cell viability assay. Format: functional, cell-based. The settings on record: Panc1005, 72 h.
In assay [6] the test system is BXPC-3. The experiment in a line: Antiproliferative activity against human BXPC-3 cells assessed as inhibition of cell proliferation treated for 72 hrs by resazurin dye-based fluorescence assay. Format: functional. As to conditions: BXPC-3, 72 h.
In assay [7] the test system is MDA-MB-231. Nature of the assay: Antiproliferative activity against human MDA-MB-231 cells assessed as inhibition of cell viability measured after 72 hrs by MTT assay. The assay is classed as functional, cell-based. The settings on record: MDA-MB-231, 72 h.
The subject of assay [8] is HCT-116. The experiment in a line: Antiproliferative activity against human HCT-116 cells assessed as reduction in cell viability incubated for 48 hrs by WST-1 assay. As to conditions: HCT-116, 48 h. The assay is classed as functional, cell-based.
Assay [9] relates to HT-29. The experiment in a line: Antiproliferative activity against human HT-29 cells assessed as reduction in cell viability measured after 48 hrs by WST-1 assay. As to conditions: HT-29, 48 h. The assay is classed as functional, cell-based.
Assay [10] concerns ID8. Nature of the assay: Cytotoxicity against mouse ID8 cells assessed as inhibition of cell viability measured after 24 hrs by MTT assay. The assay is classed as functional, cell-based. As to conditions: ID8, 24 h.
The subject of assay [11] is MC-38. The experiment in a line: Cytotoxicity against mouse MC-38 cells assessed as reduction in cell viability incubated for 24 hrs by MTS assay. The assay is classed as functional, cell-based. As to conditions: MC-38, 24 h.
Assay [12] has as its system Hepa 1-6. Nature of the assay: Cytotoxicity against mouse Hepa1-6 cells assessed as inhibition of cell growth incubated for 24 hrs by MTT assay. As to conditions: Hepa1-6, 24 h. The assay is classed as functional, cell-based.
Assay [13] relates to B16. The experiment in a line: Cytotoxicity against mouse B16 cells assessed as inhibition of cell viability measured after 24 hrs by MTT assay. The assay is classed as functional, cell-based. As to conditions: B16, 24 h.
Assay [14] is described as follows: Cytotoxicity against mouse Hepa-1 cells assessed as reduction in cell viability incubated for 24 hrs by MTS assay. The assay is classed as functional, cell-based. The settings on record: Hepa-1, 24 h.
Assay [15] relates to HT-29. Nature of the assay: Antiproliferative activity against human HT-29 cells assessed as inhibition of cell growth measured after 48 hrs by SRB assay. Format: functional, cell-based. As to conditions: HT-29, 48 h.
Assay [16] is described as follows: Antiproliferative activity against human CRC cells assessed as reduction in cell viability incubated for 48 hrs by MTT assay. The assay is classed as functional, cell-based.
For assay [17], the system named is HCT-116. The experiment in a line: Antiproliferative activity against human HCT-116 cells assessed as reduction in cell growth incubated for 48 hrs by MTT assay. Format: functional, cell-based. The settings on record: HCT-116, 48 h.

Values after ≈ are worked out from the molar mass of the structure shown.

`C/C=C/C#CC#C/C=C/c1ccco1`: the values for the IC50 in assay [1] and in assay [2] were 22.4 µM and 59.7 µM, respectively.

`Oc1c([C@@H](Nc2ccccn2)c2cccc(Cl)c2Cl)ccc2cccnc12`: the half-maximal inhibitory concentration (IC50) in assay [3], in assay [4], in assay [5] and in assay [6] was 0.59 µM each time.

On to `N#Cc1ccc(C(=O)/C=C/c2ccccc2Oc2ccccc2C=O)cc1`, for which the IC50 in assay [7] worked out at 10.6 µM.

Take `C=C1CC[C@@H]2[C@](C)(CO)[C@H](O)CC[C@@]2(C)[C@@H]1C/C=C1/C(=O)OC[C@H]1O` [ANDROGRAPHOLIDE]: the IC50 in [8] turned out to be 19 µg/mL (≈ 54.2 µM); in [9] it was 10 µg/mL (≈ 28.5 µM).

Consider `CCOc1ccccc1-n1c(C(C)N2CCN(C(=O)COc3ccc(Cl)cc3)CC2)nc2ccccc2c1=O` (configuration not stated) [ERASTIN], for which the IC50 is 1.2 µM in assay [10]; 0.5 µM in assay [11]; 0.5 µM in [12]; 5 µM in assay [13]; 0.5 µM in assay [14].

Turning to `CC(C)=CC/C=C(\C)[C@H]1CC[C@]2(C)[C@@H]1[C@H](O)C[C@@H]1[C@@]3(C)CC[C@H](O)C(C)(C)[C@@H]3[C@@H](O[C@@H]3O[C@H](CO)[C@@H](O)[C@H](O)[C@H]3O)C[C@]12C` [GINSENOSIDE RH4], the IC50 in [15] is 197 µM; in assay [16], 197 µM; in assay [17] it was 178 µM.
